Test results taken from ChEMBL document CHEMBL1201862, “PubChem BioAssay data set” (2004).
One block for each molecule: values may come before it. Activity calls are given as the source filed them.

How the values were obtained:
[1] = biological target: T1, Oxysterols receptor LXR-beta (Homo sapiens, UniProt P55055); assay type: functional, cell-based;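 further: agonist activity at LXR measured by a cell-based luminescence readout across a dose range, run as a counterscreen for daf-12 agonists; HEK293 cells with Gal4-LXR fusion and GAL4-driven luciferase reporter; potency for activation of Gal4-LXR reporter so compounds are agonists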
T1 sequence (P55055 whole entry): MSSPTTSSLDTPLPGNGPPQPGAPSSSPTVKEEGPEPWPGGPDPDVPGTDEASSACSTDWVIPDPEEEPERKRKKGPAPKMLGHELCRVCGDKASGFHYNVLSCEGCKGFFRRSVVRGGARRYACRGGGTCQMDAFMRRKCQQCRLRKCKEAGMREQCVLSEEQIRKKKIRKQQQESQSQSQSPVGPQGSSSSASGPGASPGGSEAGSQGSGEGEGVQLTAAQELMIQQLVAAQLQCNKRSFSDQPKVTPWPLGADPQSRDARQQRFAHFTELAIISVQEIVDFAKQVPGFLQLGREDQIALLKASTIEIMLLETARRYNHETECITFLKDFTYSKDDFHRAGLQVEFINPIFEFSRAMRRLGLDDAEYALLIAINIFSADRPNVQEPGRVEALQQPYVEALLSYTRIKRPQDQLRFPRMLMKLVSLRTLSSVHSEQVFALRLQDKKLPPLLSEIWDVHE

HeLa = experiment: HeLa cell cytotoxicity, dose response, cytotoxicity control for MITF activator project, CellTiter-Glo luminescence, cherry-pick samples (AID 540259); assay type: functional, cell-based; details: Homo sapiens
Beta-galactosidase = Beta-galactosidase (Escherichia coli, UniProt Q8VNN2); experiment: PubChem AID 485352; assay type: functional
[2] = biological target: T2, Type-1 angiotensin II receptor (Homo sapiens, UniProt P30556); experiment: AT1 receptor antagonists, dose response, selectivity assay for APJ receptor antagonist project, cell-based, uHTS hits (AID 463214); assay type: functional;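 further: antagonist potency against angiotensin II stimulated AT1 response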
T2 sequence (P30556 whole entry): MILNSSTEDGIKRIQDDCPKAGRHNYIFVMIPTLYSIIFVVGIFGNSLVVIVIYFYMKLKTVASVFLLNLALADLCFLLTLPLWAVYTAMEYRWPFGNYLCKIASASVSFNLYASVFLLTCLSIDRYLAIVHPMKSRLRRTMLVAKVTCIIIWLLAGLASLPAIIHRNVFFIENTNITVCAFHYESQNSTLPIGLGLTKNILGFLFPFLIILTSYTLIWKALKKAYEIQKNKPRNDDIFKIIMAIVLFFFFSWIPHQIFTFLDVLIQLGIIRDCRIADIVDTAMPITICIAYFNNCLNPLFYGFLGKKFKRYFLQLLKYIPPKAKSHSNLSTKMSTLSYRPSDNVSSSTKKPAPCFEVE

[3] = inhibitors of HIV Env-driven cell fusion, dose response, cherry-pick (AID 652057); assay type: functional, cell-based
[4] = CEM21 lymphoblast cell cytotoxicity, dose response, cytotoxicity control for viral fusion inhibitor project, CellTiter-Glo luminescence, cherry-picked (AID 652042); assay type: functional, cell-based;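 further: potency for signal decrease meaning cytotoxicity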
Cytochrome P450 1A2 = biological target: T3, Cytochrome P450 1A2 (Homo sapiens, UniProt P05177);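 further: PubChem cytochrome P450 panel assay, CYP1A2 panel member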
T3 sequence (P05177 whole entry): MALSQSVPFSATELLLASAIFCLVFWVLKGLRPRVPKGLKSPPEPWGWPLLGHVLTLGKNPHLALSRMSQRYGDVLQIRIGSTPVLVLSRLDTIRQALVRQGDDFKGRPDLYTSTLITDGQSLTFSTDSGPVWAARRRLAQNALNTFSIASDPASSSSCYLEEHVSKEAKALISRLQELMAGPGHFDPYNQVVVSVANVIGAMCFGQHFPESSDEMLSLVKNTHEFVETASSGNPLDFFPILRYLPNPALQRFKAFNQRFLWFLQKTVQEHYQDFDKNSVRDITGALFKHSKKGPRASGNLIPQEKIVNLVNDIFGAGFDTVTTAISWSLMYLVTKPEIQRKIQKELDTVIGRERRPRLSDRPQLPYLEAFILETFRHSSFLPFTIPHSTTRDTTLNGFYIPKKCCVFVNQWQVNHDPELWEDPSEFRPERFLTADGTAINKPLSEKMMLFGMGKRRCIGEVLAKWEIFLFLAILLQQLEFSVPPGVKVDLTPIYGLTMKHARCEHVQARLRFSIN

Cytochrome P450 2D6 = Cytochrome P450 2D6 (Homo sapiens, UniProt P10635);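 further: CYP2D6 member of a cytochrome P450 panel assay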
[5] = off-target signal loss in HeLa-CEM21 co-culture – HeLa F-luc CTL cells, cherry-picked, counter-screen for HIV-1 Env fusion inhibitor project, dose response (AID 652040); assay type: functional, cell-based;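 further: potency for signal decrease marking cytotoxic or nonspecific inhibition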
[6] = ZM109 Env clade C HIV-1 fusion inhibitors, dose response, HeLa effector, CEM target cells, luciferase, cherry-pick (AID 652058); assay type: functional, cell-based
[7] = inhibitors of clade B AD8 Env fusion, dose response, cell-based, cherry-pick (AID 652062); assay type: functional;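 further: luciferase signal from cell-cell fusion driven by HIV-1 clade B AD8 Env; potency is for inhibitors of fusion seen as a drop in luminescence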
[8] = biological target: Glucose-6-phosphate 1-dehydrogenase (Homo sapiens, UniProt P11413); experiment: human G6PD enzyme inhibitors, dose response, selectivity assay for P. falciparum G6PD inhibitor project, biochemical, fluorescence (AID 504792); assay type: functional
Cytochrome P450 2C9 = Cytochrome P450 2C9 (Homo sapiens, UniProt P11712)
Cytochrome P450 3A4 = Cytochrome P450 3A4 (Homo sapiens, UniProt P08684);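 further: CYP3A4 tested as one member of a cytochrome P450 panel screen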
[9] = biological target: T4, RNA-binding protein pos-1 (Caenorhabditis elegans, UniProt G5EF15); experiment: inhibitors of POS-1/mex-3 RNA binding, dose response, biochemical, fluorescence polarization (AID 1964);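 further: purified POS-1 fused to maltose binding protein made in E. coli; potency of compounds blocking POS-1 binding to fluorescent RNA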
T4 sequence (G5EF15 whole entry): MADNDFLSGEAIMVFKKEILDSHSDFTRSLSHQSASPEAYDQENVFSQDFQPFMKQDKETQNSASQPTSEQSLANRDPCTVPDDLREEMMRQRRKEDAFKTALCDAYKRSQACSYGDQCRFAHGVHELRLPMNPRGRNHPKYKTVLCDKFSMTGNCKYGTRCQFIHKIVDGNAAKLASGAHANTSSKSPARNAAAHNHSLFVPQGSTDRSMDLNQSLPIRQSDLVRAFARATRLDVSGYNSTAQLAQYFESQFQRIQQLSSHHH

[10] = biological target: T5, Rac GTPase-activating protein 1 (Homo sapiens, UniProt Q9H0H5); experiment: MgcRacGAP GTPase-activating activity inhibitors, confirmation, biochemical, ADP Hunter fluorescence, primary and confirmatory (AID 624330); assay type: functional
T5 sequence (Q9H0H5 whole entry): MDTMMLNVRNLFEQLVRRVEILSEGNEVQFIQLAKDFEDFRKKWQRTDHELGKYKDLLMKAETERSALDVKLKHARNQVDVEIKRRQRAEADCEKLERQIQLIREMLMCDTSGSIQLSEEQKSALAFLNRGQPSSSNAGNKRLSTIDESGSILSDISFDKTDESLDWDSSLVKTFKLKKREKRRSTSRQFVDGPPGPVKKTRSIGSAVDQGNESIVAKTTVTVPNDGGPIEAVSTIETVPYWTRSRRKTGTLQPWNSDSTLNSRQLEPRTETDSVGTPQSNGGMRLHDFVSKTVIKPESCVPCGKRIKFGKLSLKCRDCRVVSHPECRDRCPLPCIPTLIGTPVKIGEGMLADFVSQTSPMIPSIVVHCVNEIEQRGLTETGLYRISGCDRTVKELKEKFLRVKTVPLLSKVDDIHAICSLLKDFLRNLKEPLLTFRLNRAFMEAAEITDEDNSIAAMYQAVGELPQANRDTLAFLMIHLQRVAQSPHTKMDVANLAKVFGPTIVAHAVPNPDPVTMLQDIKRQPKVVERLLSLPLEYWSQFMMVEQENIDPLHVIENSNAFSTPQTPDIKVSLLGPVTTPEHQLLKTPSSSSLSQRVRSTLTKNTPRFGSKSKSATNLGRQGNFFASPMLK

[11] = biological target: T6, Zinc finger protein mex-5 (Caenorhabditis elegans, UniProt Q9XUB2); experiment: MEX-5/TCR-2 RNA interaction inhibitors, dose response, biochemical, C. elegans, fluorescence polarization (AID 1960)
T6 sequence (Q9XUB2 whole entry): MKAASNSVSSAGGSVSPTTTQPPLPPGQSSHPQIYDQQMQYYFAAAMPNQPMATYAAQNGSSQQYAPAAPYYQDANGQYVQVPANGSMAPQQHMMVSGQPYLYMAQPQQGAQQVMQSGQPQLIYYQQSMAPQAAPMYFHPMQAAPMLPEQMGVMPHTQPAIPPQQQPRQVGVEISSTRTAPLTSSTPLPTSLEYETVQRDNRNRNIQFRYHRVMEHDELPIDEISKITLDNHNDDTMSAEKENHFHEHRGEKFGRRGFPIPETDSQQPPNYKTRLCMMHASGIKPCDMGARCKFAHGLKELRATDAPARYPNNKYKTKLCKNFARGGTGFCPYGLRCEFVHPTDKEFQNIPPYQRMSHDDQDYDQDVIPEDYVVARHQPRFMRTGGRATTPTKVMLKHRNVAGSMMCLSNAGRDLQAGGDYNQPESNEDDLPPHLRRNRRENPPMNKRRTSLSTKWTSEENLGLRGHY

Glucose-6-phosphate 1-dehydrogenase, sequence (P11413 whole entry): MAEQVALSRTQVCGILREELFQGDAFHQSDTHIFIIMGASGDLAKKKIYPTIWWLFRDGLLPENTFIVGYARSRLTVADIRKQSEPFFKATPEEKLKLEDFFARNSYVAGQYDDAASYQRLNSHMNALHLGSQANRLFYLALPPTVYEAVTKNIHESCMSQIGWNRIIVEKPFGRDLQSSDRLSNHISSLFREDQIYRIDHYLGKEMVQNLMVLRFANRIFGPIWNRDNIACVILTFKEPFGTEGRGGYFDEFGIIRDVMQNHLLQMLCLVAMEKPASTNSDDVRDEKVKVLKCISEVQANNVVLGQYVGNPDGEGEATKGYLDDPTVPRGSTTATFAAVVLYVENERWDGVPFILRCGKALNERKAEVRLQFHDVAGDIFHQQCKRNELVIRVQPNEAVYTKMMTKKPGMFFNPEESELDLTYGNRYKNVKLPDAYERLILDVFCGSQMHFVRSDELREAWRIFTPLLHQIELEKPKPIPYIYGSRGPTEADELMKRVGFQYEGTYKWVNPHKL
Cytochrome P450 2D6, sequence (P10635 whole entry, the tested form may be a part): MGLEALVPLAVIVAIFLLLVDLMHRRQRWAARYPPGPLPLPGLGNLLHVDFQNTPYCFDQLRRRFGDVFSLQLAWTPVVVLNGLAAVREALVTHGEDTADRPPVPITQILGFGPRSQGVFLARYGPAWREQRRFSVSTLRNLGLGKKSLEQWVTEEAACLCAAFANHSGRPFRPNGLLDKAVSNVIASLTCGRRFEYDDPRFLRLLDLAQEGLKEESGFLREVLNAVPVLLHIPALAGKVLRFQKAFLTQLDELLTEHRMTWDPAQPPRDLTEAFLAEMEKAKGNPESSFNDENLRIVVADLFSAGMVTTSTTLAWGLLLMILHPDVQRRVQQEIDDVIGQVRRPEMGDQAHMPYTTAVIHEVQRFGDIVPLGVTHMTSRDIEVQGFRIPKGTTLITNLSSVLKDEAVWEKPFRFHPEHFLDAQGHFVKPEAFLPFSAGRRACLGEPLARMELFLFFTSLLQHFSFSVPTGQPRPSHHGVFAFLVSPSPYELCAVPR
Beta-galactosidase, sequence (Q8VNN2 whole entry): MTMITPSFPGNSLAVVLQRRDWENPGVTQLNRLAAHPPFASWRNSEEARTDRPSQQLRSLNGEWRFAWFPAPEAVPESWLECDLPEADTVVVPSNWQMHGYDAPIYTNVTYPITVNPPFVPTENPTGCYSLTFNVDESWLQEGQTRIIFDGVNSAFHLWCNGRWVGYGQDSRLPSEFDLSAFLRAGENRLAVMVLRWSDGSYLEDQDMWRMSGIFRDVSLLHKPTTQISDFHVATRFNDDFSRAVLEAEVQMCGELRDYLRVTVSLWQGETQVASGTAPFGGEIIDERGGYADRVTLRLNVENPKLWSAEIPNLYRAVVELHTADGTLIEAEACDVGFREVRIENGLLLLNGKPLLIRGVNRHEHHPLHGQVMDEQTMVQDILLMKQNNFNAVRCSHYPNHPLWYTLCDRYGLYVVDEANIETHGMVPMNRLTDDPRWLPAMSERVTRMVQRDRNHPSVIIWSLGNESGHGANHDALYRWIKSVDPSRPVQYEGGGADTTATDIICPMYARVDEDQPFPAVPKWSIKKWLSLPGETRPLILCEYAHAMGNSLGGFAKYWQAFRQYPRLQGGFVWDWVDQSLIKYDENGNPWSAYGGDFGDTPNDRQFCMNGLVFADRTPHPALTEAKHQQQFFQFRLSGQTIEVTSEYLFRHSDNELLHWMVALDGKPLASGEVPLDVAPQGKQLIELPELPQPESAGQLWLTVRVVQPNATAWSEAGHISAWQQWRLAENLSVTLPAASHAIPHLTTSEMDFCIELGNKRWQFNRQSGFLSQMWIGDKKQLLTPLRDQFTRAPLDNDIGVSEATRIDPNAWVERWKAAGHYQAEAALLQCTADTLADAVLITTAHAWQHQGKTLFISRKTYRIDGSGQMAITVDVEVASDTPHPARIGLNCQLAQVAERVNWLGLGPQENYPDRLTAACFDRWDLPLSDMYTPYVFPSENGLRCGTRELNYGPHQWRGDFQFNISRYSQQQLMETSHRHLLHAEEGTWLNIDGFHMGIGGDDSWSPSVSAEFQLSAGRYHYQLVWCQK
Cytochrome P450 2C9, sequence (P11712 whole entry): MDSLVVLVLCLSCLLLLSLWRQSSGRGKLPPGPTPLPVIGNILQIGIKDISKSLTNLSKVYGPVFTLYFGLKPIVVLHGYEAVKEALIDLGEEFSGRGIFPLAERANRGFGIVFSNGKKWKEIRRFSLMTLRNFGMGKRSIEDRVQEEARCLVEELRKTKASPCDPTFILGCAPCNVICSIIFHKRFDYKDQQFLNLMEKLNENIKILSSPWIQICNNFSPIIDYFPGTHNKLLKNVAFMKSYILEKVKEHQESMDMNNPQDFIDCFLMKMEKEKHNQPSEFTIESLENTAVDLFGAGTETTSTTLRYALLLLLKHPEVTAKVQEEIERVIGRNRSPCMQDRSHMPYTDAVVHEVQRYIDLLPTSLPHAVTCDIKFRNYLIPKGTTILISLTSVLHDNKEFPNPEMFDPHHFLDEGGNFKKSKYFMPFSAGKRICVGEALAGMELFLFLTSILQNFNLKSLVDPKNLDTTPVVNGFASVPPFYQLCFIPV
Cytochrome P450 3A4, sequence (P08684 whole entry, the tested form may be a part): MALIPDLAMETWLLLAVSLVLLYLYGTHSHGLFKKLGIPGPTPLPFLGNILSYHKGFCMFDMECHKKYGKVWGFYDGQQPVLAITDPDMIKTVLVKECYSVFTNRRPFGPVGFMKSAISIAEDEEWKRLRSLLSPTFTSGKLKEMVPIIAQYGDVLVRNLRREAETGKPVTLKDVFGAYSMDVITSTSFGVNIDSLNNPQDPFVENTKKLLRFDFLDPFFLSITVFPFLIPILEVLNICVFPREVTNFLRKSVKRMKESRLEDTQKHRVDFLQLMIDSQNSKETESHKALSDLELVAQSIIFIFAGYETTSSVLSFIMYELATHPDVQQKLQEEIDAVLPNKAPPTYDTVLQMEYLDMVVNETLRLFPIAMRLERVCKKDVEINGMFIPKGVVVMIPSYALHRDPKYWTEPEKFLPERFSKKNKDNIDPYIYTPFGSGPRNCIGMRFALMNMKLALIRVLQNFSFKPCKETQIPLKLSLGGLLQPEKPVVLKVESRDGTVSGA

Structure (SMILES): Cc1ccn(-c2cccc(-n3ccc(C)n3)n2)n1
- EC50 [1]: > 67.6 µM (inactive)
- AC50 (HeLa): 46.9 µM (active)

- EC50 (Beta-galactosidase): > 40 µM (inactive)
- IC50 [2]: > 40 µM (not active)
Structure (SMILES): COc1ccc(S(=O)(=O)NNc2nc(C)cc(C)n2)cc1Br

Structure (SMILES): COc1ccc2nc(NC(=O)C3CCN(S(=O)(=O)c4cccc5nsnc45)CC3)sc2c1
- AC50 [3]: 65.4 µM (active)
- AC50 [4]: 41.8 µM (active)
- AC50 (Cytochrome P450 1A2): 3.16 µM (inconclusive)
- AC50 (Cytochrome P450 2D6): inconclusive
- AC50 [5]: > 70 µM (inactive)
- AC50 [6]: 1.9 µM (active)
- AC50 [7]: 4 µM (active)

Structure (SMILES): Cc1cccc(C(=O)Nc2sc3c(c2C#N)CCCCC3)c1
- AC50 (HeLa): 42.1 µM (active)

Structure (SMILES): O=C(OCC(=O)c1ccc([N+](=O)[O-])cc1)/C(=C\c1ccc(Cl)cc1)NC(=O)c1ccccc1
- IC50 [8]: > 80 µM (inactive)
- AC50 (Cytochrome P450 2C9): 0.0355 µM (inconclusive)
- AC50 (Cytochrome P450 3A4): 22.4 µM (inconclusive)

Structure (SMILES): CC1N(C)c2cccc3cccc(c23)N1C
- IC50 [8]: > 80 µM (inactive)
- EC50 [9]: > 300 µM (not active)
- IC50 [10]: 25 µM (active)
- EC50 [11]: > 300 µM (inconclusive)

Structure (SMILES): CC(C)Nc1oc(-c2cccc3ccccc23)nc1C#N
- AC50 (HeLa): 76.7 µM (active)

Structure (SMILES): Cc1ccnc(NC(=O)c2ccc(S(=O)(=O)N3CCC(C)CC3)cc2)c1
- AC50 (HeLa): 128 µM (active)
